Assay results reported in US20150272922A1, “Compounds for Reducing Glucocorticoids, and Methods of Treatment Thereof” (BIONICHE LIFE SCIENCES INC., priority 2012, published 2015).
≈ marks a conversion by molar mass, not a printed value. Where two headings read alike, the source gives them in different places.

Tested on: trout head kidney tissue
Assay: Cortisol lowering activity in trout head kidney slice model (ACTH-stimulated cortisol release)
Type: cell-based, rainbow trout (Oncorhynchus mykiss)
Conditions: for effect on cortisol production: 60 μg/ml, ACTH 1 U/ml; for EC50: Oncorhynchus mykiss; for concentration dependence of effect on cortisol production: ACTH 1 U/mL
Procedure: Head kidney tissue was isolated using a modified method as described by Conde-Sieira et al. (2013). Fish were anaesthetized with benzocaine (30-35 mg/L), blood was removed from the caudal vein using a 3 mL heparinized syringe and the fish euthanized by spinal transection. The vasculature was perfused through the post-cardinal vein with 40 mL of modified Hanks' medium (92.56 mM NaCl, 3.63 mM KCl, 0.55 mM MgSO4, 0.4 mM KH2PO4, 0.23 Na2HPO4, 7.5 mM Hepes, 2.81 mM NaHCO3, 0.85 mM CaCl2, 0.03% (w/v) bovine albumin serum) containing EGTA (1 mM final) adjusted to pH 7.64. The entire head kidney was removed from the trout and transferred to a 15 mL chilled glass petri dish containing modified Hanks' medium (pH 7.15). The tissue was weighed then transferred to a 35 mL chilled glass petri dish containing […] modified Hanks' medium per gram of tissue supplemented with MEM amino acid solution (50×; 2 mL/100 mL medium; Sigma—M5550), MEM non-essential amino acid solution (100×; 1 mL/100 mL medium; Sigma˜M7145) and Antibiotic-Antimycotic (100×; 1 mL/100 mL medium; Life Technologies˜15240). The tissue was chopped finely with a razor blade then separated further using a rubber policeman. The tissue was incubated at 13° C. with gentle agitation for 1.5 h to ensure basal levels of cortisol release. Optimal incubation times were determined in previous experiments (Conde-Sieira et al., 2013).
Following the 1.5 h pre-incubation, tissue was placed in 48-well culture plates (approximately 25 mg tissue pre well) along with a final volume of 250 μL modified Hanks' medium. There were two wells for each compound treatment; one control (−ACTH) and one stimulated (+ACTH) that were conducted simultaneously. Tissues were incubated with compounds of the disclosure (60 μg/mL) initiated at the same time as determined in previous experiments (Mullally et al., 2012) for 60 min at 13° C. with gentle agitation and stimulated with 1 U/mL ACTH (Sigma-Aldrich). The compounds were dissolved in ethanol and DMSO (final concentration of DMSO: 0.3% v/v, ethanol 1% v/v) by vortexing for 1 min and sonication for 30 s if the compound was not fully dissolved (determined by visual inspection). After incubation, tissue and supernatant were collected and transferred to pre-weighed 1.5 mL conical plastic tubes and centrifuged (14 000 RCF, 10 min). The supernatant was collected and transferred into a new 1.5 mL conical plastic tube and flash frozen in liquid nitrogen for subsequent cortisol assay. The mass of tissue for each sample was determined by weighing the remaining tissue in the pre-weighed tubes. Four control wells were prepared for each preparation: modified Hanks' medium, modified Hanks' medium plus ACTH (1 U/mL), DMSO/ethanol blank (0.3% v/v DMSO, 1% v/v ethanol) and DMSO/ethanol blank plus ACTH (1 U/mL).
Cortisol concentrations were assessed using a ^125I RIA kit (MP Biomedicals, Irvine, Calif., USA) as per the manufacturer's instructions and read using a Packard® Cobra™ Auto-Gamma Counter. Counts were normalized to tissue weights in each experimental well.
Data are presented as % change in ACTH-stimulated cortisol release relative to control preparation (modified Hanks' medium stimulated with ACTH) using GraphPad Prism software (GraphPad Software, Inc., La Jolla, Calif.). […] GraphPad Prism software (GraphPad Software, Inc., La Jolla, Calif.) was used to graph and calculate EC50 values by fitting a sigmoidal curve to the dose response data as well as linear regressions between Log P of compounds of the disclosure vs log cortisol responses.

[1] = read-out: calculated EC50, approximate (inhibition of cortisol production)
[2] = GraphPad Prism fit, n=3-7, FIG. 3, read-out: EC50, four parameter sigmoidal curve (ACTH-stimulated cortisol release)

COC(=O)[C@]12CC[C@@H](C(C)O)C1C1CCC3[C@@]4(C)CC[C@H](O)C(C)(C)C4CC[C@@]3(C)[C@]1(C)CC2 (single isomer, unassigned) [Compound 1546]
effect on cortisol production: lowered cortisol production
EC50 [1]: ~9 µg/mL (≈ 19 µM)
EC50 [2]: 9.5 µg/mL (≈ 20 µM)

CC(=O)[C@@H]1CC[C@]2(C(=O)O)CC[C@]3(C)[C@H](CC[C@@H]4[C@@]5(C)CC[C@H](O)C(C)(C)[C@@H]5CC[C@]43C)[C@@H]12 [Compound 1516, Platanic Acid]
effect on cortisol production: lowered cortisol production
EC50 [1]: ~9 µg/mL (≈ 19.6 µM)
EC50 [2]: 9.4 µg/mL (≈ 20.5 µM)
concentration dependence of effect on cortisol production (dose response): inhibited cortisol production in a dose-dependent manner

C=C(C)[C@@H]1CC[C@]2(C(=O)OC)CC[C@]3(C)C(CCC4[C@@]5(C)C[C@@H](O)C(=O)C(C)(C)C5CC[C@]43C)C12 (stereo partly drawn) [Compound 1521, Methyl 2α-hydroxy betulonate]
effect on cortisol production: lowered cortisol production

C=C(C)[C@@H]1CC[C@]2(/C=C/C(=O)OCC)CC[C@]3(C)C(CCC4[C@@]5(C)CC[C@H](O)C(C)(C)C5CC[C@]43C)C12 (some centres unmarked) [Compound 1529, Vinylogous ethyl betulinate]
effect on cortisol production: lowered cortisol production
EC50 [2]: 116 µg/mL (≈ 227 µM)

COC(=O)[C@]12CC[C@@H](C)[C@H](C)[C@H]1C1=CCC3[C@@]4(C)C[C@@H](O)C(=O)C(C)(C)C4CC[C@@]3(C)[C@]1(C)CC2 (stereo partly drawn) [Compound 1537, Methyl 2α-hydroxy-3-oxo-urs-12-en-28-oate]
effect on cortisol production: lowered cortisol production
EC50 (ACTH-stimulated cortisol release, dose response, FIG. 3, read-out: calculated EC50, approximate (inhibition of cortisol production)): ~28 µg/mL (≈ 57.8 µM)
EC50 [2]: 28.2 µg/mL (≈ 58.2 µM)
concentration dependence of effect on cortisol production (dose response): inhibited cortisol production in a dose-dependent manner
